{
  "source": "paper PMC2246472",
  "about": "“Bombesin and bombesin antagonists: studies in Swiss 3T3 cells and human small cell lung cancer” (British Journal of Cancer, 1988)",
  "key": {"bombesin/GRP receptor": {"molecular_target": "T1, bombesin/GRP receptor (Mus musculus, UniProt P21729)", "T1 construct": "endogenous in cells; host or cells: Swiss 3T3 murine fibroblasts (intact, quiescent/confluent)", "T1 sequence (P21729 whole entry)": "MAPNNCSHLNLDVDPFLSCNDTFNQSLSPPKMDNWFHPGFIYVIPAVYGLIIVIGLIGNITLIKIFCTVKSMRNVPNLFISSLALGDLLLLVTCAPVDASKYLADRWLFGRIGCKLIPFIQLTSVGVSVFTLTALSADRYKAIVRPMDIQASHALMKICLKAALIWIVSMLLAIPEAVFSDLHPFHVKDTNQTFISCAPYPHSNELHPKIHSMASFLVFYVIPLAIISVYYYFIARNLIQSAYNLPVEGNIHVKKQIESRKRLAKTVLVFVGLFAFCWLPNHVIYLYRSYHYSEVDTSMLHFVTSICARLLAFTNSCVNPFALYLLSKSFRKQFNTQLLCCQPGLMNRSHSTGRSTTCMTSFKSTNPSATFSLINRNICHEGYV", "conditions": "Swiss 3T3 cells; ref Zachary & Rozengurt, 1985a; cited from earlier work", "source_text": "Br. J. Cancer (1988), 57, 579-586 ? The Macmillan Press Ltd., 1988 Bombesin and bombesin antagonists: Studies in Swiss 3T3 cells and human small cell lung cancer* P.J. Woll & E. Rozengurt Imperial Cancer Research Fund, PO Box 123, Lincoln's Inn Fields, London WC2A 3PX, UK."}, "pancreatic acinar cells": {"tested_on": "pancreatic acinar cells", "conditions": "ref Jensen et al., 1984; cited from earlier work"}, "[1]": {"tested_on": "vasopressin-stimulated DNA synthesis in Swiss 3T3 cells", "conditions": "ref Zachary & Rozengurt, 1986, Corps et al., 1985; cited from earlier work", "source_text": "(§1) Br. J. Cancer (1988), 57, 579-586 ? The Macmillan Press Ltd., 1988 Bombesin and bombesin antagonists: Studies in Swiss 3T3 cells and human small cell lung cancer* P.J. Woll & E. Rozengurt Imperial Cancer Research Fund, PO Box 123, Lincoln's Inn Fields, London WC2A 3PX, UK. Summary Bombesins are potent growth factors for murine Swiss 3T3 cells. Using these cells in chemically defined conditions we have been able to characterise the bombesin receptor and the early signals preceding DNA synthesis. We describe two substance P analogues [DArg1, DPro2, DTrp7 9, Leu1 ] substance P and [DArg1, DPhe5, ..."}, "[2]": {"tested_on": "protein kinase C (80K phosphorylation)", "conditions": "Swiss 3T3 cells; ref Zachary et al., 1986; cited from earlier work", "source_text": "as §1"}, "[3]": {"molecular_target": "T2, Mr 75,000-85,000 protein component of the bombesin/GRP receptor (Mus musculus, UniProt P21729)", "T2 construct": "endogenous in cells; host or cells: Swiss 3T3 murine fibroblasts (intact, quiescent/confluent)", "T2 sequence (P21729 whole entry)": "as above", "conditions": "Swiss 3T3 cells; ref Zachary & Rozengurt, 1987a; cited from earlier work", "source_text": "as §1"}, "[4]": {"tested_on": "c-fos and c-myc expression", "conditions": "Swiss 3T3 cells; ref Rozengurt & Sinnett-Smith, 1987; cited from earlier work", "source_text": "as §1"}, "[5]": {"tested_on": "GRP-stimulated mitogenesis in Swiss 3T3 cells", "conditions": "ref Zachary & Rozengurt, 1985a; cited from earlier work", "source_text": "as §1"}, "Na+/K+ pump": {"tested_on": "Na+/K+ pump", "conditions": "Swiss 3T3 cells; ref Mendoza et al., 1986; cited from earlier work", "source_text": "as §1"}, "Swiss 3T3 cells [6]": {"tested_on": "Swiss 3T3 cells", "conditions": "ref Zachary & Rozengurt, 1985a; cited from earlier work", "source_text": "as §1"}, "Ca2+ mobilization": {"tested_on": "Ca2+ mobilization", "conditions": "Swiss 3T3 cells; ref Mendoza et al., 1986; cited from earlier work", "source_text": "as §1"}, "EGF receptor": {"tested_on": "EGF receptor", "conditions": "Swiss 3T3 cells; ref Zachary et al., 1986; cited from earlier work", "source_text": "as §1"}, "H69 SCLC cell line": {"tested_on": "H69 SCLC cell line", "experiment": "Growth of H69 SCLC cell line in serum-free HITES medium (Coulter counter)", "format": "cell-based, human", "conditions": "peptide A at 150 pM (so in the source), HITES medium + 0.25% bovine serum albumin, inoculum 5 x 10^4 cells, mean of 3; restored by washing; Figure 3 left"}, "Swiss 3T3 cells [7]": {"tested_on": "Swiss 3T3 cells", "set-up": "method as in 2 sources, one per row (each row's own in cited_ref): ref Rozengurt & Sinnett-Smith, 1983 ||| ref Zachary & Rozengurt, 1985a", "conditions": "serum-free medium, cited from earlier work"}},
  "note": "Read-outs that look alike come from different tables or passages of the source.",
  "data": [
    {"compound": "CCCC(=O)O[C@@H]1[C@@H](C)[C@@]2(O)[C@@H](C=C(CO)C[C@]3(O)C(=O)C(C)=C[C@@H]23)[C@@H]2C(C)(C)[C@]12OC(=O)CCC", "note": "[PBt2, phorbol 12,13, dibutyrate, reference compound]", "values": [
      {"measurement": "inhibition of [125I]GRP binding by other mitogens and neuropeptides", "setting": "bombesin/GRP receptor", "value": "not inhibited"}
    ]},
    {"compound": "Arg Pro Lys Pro Gln Gln Phe Phe Gly Leu Met NH2 [substance P, tachykinin with minimal structural homology with bombesin, reference compound]", "values": [
      {"measurement": "inhibition of [125I]GRP binding by other mitogens and neuropeptides", "setting": "bombesin/GRP receptor", "value": "not inhibited"}
    ]},
    {"compound": "DArg Dpro Lys Pro Gln Gln DTrp Phe DTrp Leu Leu NH2 [peptide A, [DArg1, DPro2, DTrp7,9, Leu11] substance P]", "values": [
      {"measurement": "effect on secretory effects of bombesin in pancreatic acinar cells", "setting": "pancreatic acinar cells", "value": "block the secretory effects of bombesin"},
      {"measurement": "effect on stimulation of DNA synthesis by vasopressin (Table III)", "setting": "[1]", "value": "reversibly blocks"},
      {"measurement": "effect on 80K phosphorylation (Table III)", "setting": "[2]", "value": "reversibly blocks"},
      {"measurement": "effect on cross-linking of [125I]GRP to the Mr 75,000-85,000 glycoprotein (Table III)", "setting": "[3]", "value": "reversibly blocks"},
      {"measurement": "effect on increase in c-fos and c-myc expression (Table III)", "setting": "[4]", "value": "reversibly blocks"},
      {"measurement": "effect on stimulation of DNA synthesis by bombesin-like peptides (Table III)", "setting": "[5]", "value": "reversibly blocks"},
      {"measurement": "effect on activation of Na+/K+ pump (Table III)", "setting": "Na+/K+ pump", "value": "reversibly blocks"},
      {"measurement": "effect on DNA synthesis stimulated by PDGF, EGF, phorbol esters and c-AMP-increasing agents (Table III)", "setting": "Swiss 3T3 cells [6]", "value": "is not affected"},
      {"measurement": "effect on Ca2+ mobilization (Table III)", "setting": "Ca2+ mobilization", "value": "reversibly blocks"},
      {"measurement": "effect on EGF transmodulation (Table III)", "setting": "EGF receptor", "value": "reversibly blocks"},
      {"measurement": "effect on growth of H69 cells", "setting": "H69 SCLC cell line", "value": "suppressed"},
      {"measurement": "effect on [125I]GRP binding (Table III)", "setting": "bombesin/GRP receptor", "value": "reversibly blocks"}
    ]},
    {"compound": "EGF: epidermal growth factor", "values": [
      {"measurement": "inhibition of [125I]GRP binding by other mitogens and neuropeptides", "setting": "bombesin/GRP receptor", "value": "not inhibited"}
    ]},
    {"compound": "PDGF", "values": [
      {"measurement": "inhibition of [125I]GRP binding by other mitogens and neuropeptides", "setting": "bombesin/GRP receptor", "value": "not inhibited"}
    ]},
    {"compound": "insulin", "values": [
      {"measurement": "inhibition of [125I]GRP binding by other mitogens and neuropeptides", "setting": "bombesin/GRP receptor", "value": "not inhibited"}
    ]},
    {"compound": "pGlu Gin Arg Leu Gly Asn Gin Trp Ala Val Gly His Leu Met NH2 [bombesin, tetradecapeptide first isolated from amphibian skin]", "values": [
      {"measurement": "EC50", "setting": "Swiss 3T3 cells [7]; absence of other growth-promoting agents, ref Rozengurt & Sinnett-Smith, 1983, read-out: bombesin concentration giving half-maximal effect on DNA synthesis", "value": 1, "unit": "nM"},
      {"measurement": "EC50", "setting": "Swiss 3T3 cells [7]; in the presence of insulin, ref Zachary & Rozengurt, 1985a, read-out: bombesin concentration required to produce a half-maximal response (DNA synthesis) with insulin", "value": 0.3, "unit": "nM"}
    ]},
    {"compound": "vasoactive intestinal peptide [VIP, reference compound]", "values": [
      {"measurement": "inhibition of [125I]GRP binding by other mitogens and neuropeptides", "setting": "bombesin/GRP receptor", "value": "not inhibited"}
    ]},
    {"compound": "vasopressin [reference compound]", "values": [
      {"measurement": "inhibition of [125I]GRP binding by other mitogens and neuropeptides", "setting": "bombesin/GRP receptor", "value": "not inhibited"}
    ]}
  ]
}
